Assay results reported in EP4722228A1, “NEW COMPOUND TARGETING MUSK AND USE THEREOF” (The University of Tokyo, priority 2023, dated 2024).

Experiments:
[1] = test system: C2C12 myotubes (AChR clusters); test: Induction of AChR clusters in myotube cells by the MuSK7 homodimer, with or without AST-487; assay type: cell-based, mouse; conditions: in the presence of AST-487
Source text: The mouse myoblast-derived cell line C2C12 (CRL-1772) was purchased from the American Type Culture Collection and used. For subculture, Dulbecco's Modified Eagle Medium (DMEM, high glucose, GlutaMAX supplement, pyruvate; GIBCO) supplemented with 20% fetal bovine serum (FBS; GIBCO) was used. For passage, after the culture medium was removed by suction, adherent cells were washed with phosphate buffered saline (PBS(-)), and HBSS (GIBCO) containing no Mg^2+ and Ca^2+ and containing 0.25% trypsin and 1 mM ethylenediaminetetraacetic acid was added, and the mixture was reacted in a CO2 incubator (37°C, 5% CO2) for 5 minutes. […]
A differentiation medium supplemented with an appropriate amount of the homodimer of the cyclic peptide MuSK7 (MuSK7 PEG11 dimer) was prepared in advance in a 96-well plate (Nunclon Δ Surface, 167008, Nunc), and used at 100 µL/well at the time of the second medium change in the process of inducing differentiation into myotubes. […] After washing the cells several times with 1% BSA-PBS(-), 100 µL of PBS(-) was added to each well, and fluorescence observation was performed using a fluorescence imaging device. […] During fluorescence image observation, a 10× objective lens was used, and tiff images of an area equivalent to 1 mm^2 were obtained. […] The average number of AChR clusters counted from the three tiff images derived from the same well was calculated and drawn on a graph. […]

[2] = test system: C2C12 myotubes (Agrin-induced AChR clusters); test: Agrin-induced AChR clusters in myotubes with tyrosine kinase inhibitors; assay type: cell-based, mouse; conditions: 10 pM recombinant rat agrin, inhibitor added simultaneously, 20 hours; low concentration range of 1 nM
Source text: The mouse myoblast-derived cell line C2C12 (CRL-1772) was purchased from the American Type Culture Collection and used. For subculture, Dulbecco's Modified Eagle Medium (DMEM, high glucose, GlutaMAX supplement, pyruvate; GIBCO) supplemented with 20% fetal bovine serum (FBS; GIBCO) was used. For passage, after the culture medium was removed by suction, adherent cells were washed with phosphate buffered saline (PBS(-)), and HBSS (GIBCO) containing no Mg^2+ and Ca^2+ and containing 0.25% trypsin and 1 mM ethylenediaminetetraacetic acid was added, and the mixture was reacted in a CO2 incubator (37°C, 5% CO2) for 5 minutes. The detached cells were collected and then centrifuged at 1000 rpm at 4°C for 5 minutes (Sorvall X4R Pro, Thermo Fisher Scientific Inc.). After the supernatant was removed by suction, the cells were suspended in fresh culture medium, and 100 µL was seeded into a 96-well plate (BioCoat Collagen I 96-well Black/Clear plate, Corning Inc.) and cultured in a CO2 incubator (37°C, 5% CO2) until reaching confluence, typically within 72 hours. Subsequently, the culture medium was removed and the first medium change was performed with DMEM containing 2% horse serum (GIBCO) for induction of myotube cell differentiation.
A differentiation medium supplemented with an appropriate amount of the homodimer of the cyclic peptide MuSK7 (MuSK7 PEG11 dimer) was prepared in advance in a 96-well plate (Nunclon Δ Surface, 167008, Nunc), and used at 100 µL/well at the time of the second medium change in the process of inducing differentiation into myotubes. 20 hours after addition of the homodimer of the cyclic peptide MuSK7, the medium was removed, the cells were washed with PBS(-), and then fixed at room temperature for 15 minutes with PBS(-) containing 4% formaldehyde. After washing several times with 1% BSA-PBS(-), fluorescently labeled α-bungarotoxin (α-Btx, Alexa Fluor 488 conjugate; Invitrogen) was added to 1% BSA-PBS(-) at a final concentration of 100 nM, and after adding this to the wells, the mixture was allowed to stand at room temperature under a light-shielded condition for 30 minutes. After washing the cells several times with 1% BSA-PBS(-), 100 µL of PBS(-) was added to each well, and fluorescence observation was performed using a fluorescence imaging device. For observation of fluorescently labeled AChR clusters, an EVOS M7000 imaging system (Thermo Fisher Scientific Inc.) was used. During fluorescence image observation, a 10× objective lens was used, and tiff images of an area equivalent to 1 mm^2 were obtained. […] The average number of AChR clusters counted from the three tiff images derived from the same well was calculated and drawn on a graph.
MuSK inhibitor candidates were searched in the KinaseNET database (http://www.kinasenet.ca/) published as an open resource by Kinexus Bioinformatics Corporation (Canada), and three tyrosine kinase inhibitors (AST-487, Foretinib, and Sorafenib) were identified. Next, groups were prepared in which 10 pM recombinant rat agrin protein (550-AG, R&D Systems) derived from C2C12 myotubes was added alone, or in which each tyrosine kinase inhibitor (3 nM) was added simultaneously, and detection and observation of Agrin-induced AChR clusters were performed 20 hours after compound addition (five types, Crizotinib, Linifanib, AST-1306, Dovitinib, and BMS-754807, were used as non-MuSK inhibitory tyrosine kinase inhibitors).

With `CCN1CCN(Cc2ccc(NC(=O)Nc3ccc(Oc4cc(NC)ncn4)cc3)cc2C(F)(F)F)CC1` [AST-487] the “AChR cluster formation by the homodimer of the cyclic peptide MuSK7” value [1] was “no AChR clusters were detected” and the “Agrin-induced AChR cluster formation” value [2] was “no AChR cluster formation was observed”.
